Experimental data: ChEMBL document CHEMBL1201862, “PubChem BioAssay data set” (2004)
Structures can show the parent of a compound that is named as a salt.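 Where inhibition never reached the appropriate level, the endpoint shown equals the highest concentration tested. Otherwise, values were interpolated linearly from a five-concentration, 48-hour dose response in 96-well plates. Abbreviation: GI50, concentration required for 50% inhibition of growth.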 Activity calls are given as the source filed them. Cut-off read from the data, not from the text of the source: active = GI50 up to about 1.1 µM and inactive = higher.

Assays:
Test in all cases: DTP human tumour cell line panel, 48 h
SNB-19 = tested on: SNB-19
NCI/ADR-RES = tested on: NCI/ADR-RES
OVCAR-4 = tested on: OVCAR-4
SK-OV-3 = tested on: SK-OV-3
NCI-H522 = tested on: NCI-H522
OVCAR-8 = tested on: OVCAR-8
NCI-H226 = tested on: NCI-H226
IGROV-1 = tested on: IGROV-1
NCI-H460 = tested on: NCI-H460
RPMI-8226 = tested on: RPMI-8226
MDA-MB-435 = tested on: MDA-MB-435
SN12C = tested on: SN12C
UACC-62 = tested on: UACC-62
Malme-3M = tested on: Malme-3M
HL-60 = tested on: HL-60
U-251 = tested on: U-251
MDA-MB-231 = tested on: MDA-MB-231
786-0 = tested on: 786-0
MDA-N = tested on: MDA-N
SR = tested on: SR

Measured: GI50

S=C(NCc1ccccc1)c1nc[nH]c1C(=S)NCc1ccccc1
inactive: SNB-19 5.4 µM | NCI/ADR-RES 3.41 µM | OVCAR-4 6.65 µM | SK-OV-3 12.7 µM | NCI-H522 3.58 µM | OVCAR-8 4.49 µM | NCI-H226 1.78 µM | IGROV-1 5.08 µM | NCI-H460 4.06 µM | RPMI-8226 5.19 µM | MDA-MB-435 6.62 µM | SN12C 11.7 µM | UACC-62 3.2 µM | Malme-3M 11 µM | HL-60 7.69 µM | U-251 5.87 µM | MDA-MB-231 10 µM | 786-0 5.96 µM | MDA-N 7.74 µM

Cc1nnc2sc(Cl)nn12
inactive: SNB-19 44.8 µM | NCI/ADR-RES 51.5 µM | OVCAR-4 16.8 µM | SK-OV-3 17.3 µM | NCI-H522 10 µM | OVCAR-8 32.9 µM | NCI-H226 28.6 µM | IGROV-1 16.4 µM | NCI-H460 18.5 µM | RPMI-8226 6.1 µM | MDA-MB-435 7.64 µM | SN12C 32.4 µM | UACC-62 4.51 µM | Malme-3M 22.1 µM | U-251 16.4 µM | MDA-MB-231 22.1 µM | 786-0 26.5 µM | MDA-N 20.2 µM

CNc1ccc(N)cc1C(=O)N1CCC[C@H]1CO
inactive: SNB-19 > 100 µM | NCI/ADR-RES > 100 µM | OVCAR-4 > 100 µM | SK-OV-3 > 100 µM | NCI-H522 > 100 µM | OVCAR-8 > 100 µM | NCI-H226 > 100 µM | IGROV-1 > 100 µM | MDA-MB-435 > 100 µM | SN12C > 100 µM | UACC-62 > 100 µM | Malme-3M > 100 µM | HL-60 > 100 µM | U-251 > 100 µM | MDA-MB-231 > 100 µM | 786-0 > 100 µM | MDA-N > 100 µM

N/C(=N\OC(=O)NC(Cl)=C(Cl)Cl)c1cc(C(F)(F)F)cc(C(F)(F)F)c1
inactive: SNB-19 18.7 µM | NCI/ADR-RES 19.5 µM | SK-OV-3 28.4 µM | OVCAR-8 20.1 µM | NCI-H226 22.1 µM | IGROV-1 25.8 µM | SR 10.7 µM | NCI-H460 18.8 µM | RPMI-8226 12.5 µM | MDA-MB-435 19.4 µM | SN12C 24.3 µM | Malme-3M 23.9 µM | HL-60 12.8 µM | U-251 16 µM | MDA-MB-231 15.8 µM | 786-0 16.2 µM | MDA-N 21.5 µM

[N-]=[N+]=Nc1c(Cc2ccccc2)c(Cl)nc2ccccc12
inactive: SNB-19 19.1 µM | NCI/ADR-RES 22.4 µM | OVCAR-4 42 µM | SK-OV-3 53 µM | NCI-H522 27.5 µM | OVCAR-8 20.8 µM | NCI-H226 16 µM | IGROV-1 26.6 µM | NCI-H460 35.4 µM | RPMI-8226 38.3 µM | MDA-MB-435 13.6 µM | SN12C 23.6 µM | UACC-62 22.6 µM | Malme-3M 21.1 µM | HL-60 23.8 µM | MDA-MB-231 18.7 µM | 786-0 35.6 µM | MDA-N 21.9 µM

O=C(O)C1C2C=CC(C2)C1c1ccccc1 (centres undefined)
inactive: SNB-19 > 100 µM | NCI/ADR-RES > 100 µM | SK-OV-3 > 100 µM | OVCAR-8 > 100 µM | NCI-H226 > 100 µM | SR > 100 µM | NCI-H460 > 100 µM | RPMI-8226 > 100 µM | MDA-MB-435 > 100 µM | SN12C > 100 µM | UACC-62 > 100 µM | Malme-3M > 100 µM | HL-60 > 100 µM | U-251 > 100 µM | MDA-MB-231 > 100 µM | 786-0 > 100 µM | MDA-N > 100 µM

COc1ccc2c(c1)C1Oc3ccccc3CC1CO2 (centres undefined)
inactive: SNB-19 > 100 µM | NCI/ADR-RES 42.1 µM | OVCAR-4 43.9 µM | SK-OV-3 97.5 µM | NCI-H522 45 µM | OVCAR-8 83.9 µM | NCI-H226 > 100 µM | IGROV-1 > 100 µM | NCI-H460 96.8 µM | RPMI-8226 25.6 µM | MDA-MB-435 47 µM | SN12C 35.4 µM | UACC-62 98.2 µM | Malme-3M 54 µM | HL-60 21.2 µM | U-251 91.8 µM | MDA-MB-231 16.8 µM | 786-0 47.4 µM | MDA-N 37.6 µM

CC(C)(C)OC(=O)NCCCCC(NC(=O)c1ccccc1)C(N)=O (centres undefined)
inactive: SNB-19 > 100 µM | NCI/ADR-RES > 100 µM | OVCAR-4 > 100 µM | SK-OV-3 99.1 µM | NCI-H522 > 100 µM | OVCAR-8 > 100 µM | NCI-H226 > 10 µM | NCI-H460 > 100 µM | RPMI-8226 > 100 µM | MDA-MB-435 > 100 µM | SN12C > 100 µM | UACC-62 71.9 µM | Malme-3M > 100 µM | U-251 > 100 µM | MDA-MB-231 > 100 µM | 786-0 > 100 µM | MDA-N > 100 µM

N#CC1(c2ccccc2)CCN(C2(c3ccccc3)CCCCC2)CC1
inactive: SNB-19 > 100 µM | NCI/ADR-RES > 100 µM | OVCAR-4 > 100 µM | SK-OV-3 > 100 µM | OVCAR-8 > 100 µM | NCI-H226 > 100 µM | IGROV-1 > 100 µM | SR > 100 µM | RPMI-8226 > 100 µM | MDA-MB-435 > 100 µM | SN12C > 100 µM | UACC-62 > 100 µM | Malme-3M 8.83 µM | HL-60 > 100 µM | U-251 > 100 µM | MDA-MB-231 > 100 µM | 786-0 94.2 µM | MDA-N > 100 µM

CCOC(=O)c1nnsc1N/N=C\c1ccc([N+](=O)[O-])cc1
inactive: SNB-19 70.1 µM | NCI/ADR-RES > 100 µM | OVCAR-4 > 100 µM | SK-OV-3 > 100 µM | NCI-H522 > 100 µM | OVCAR-8 54.7 µM | NCI-H226 > 100 µM | IGROV-1 > 100 µM | NCI-H460 > 100 µM | RPMI-8226 > 100 µM | MDA-MB-435 > 100 µM | SN12C > 100 µM | UACC-62 > 100 µM | Malme-3M > 100 µM | U-251 > 100 µM | MDA-MB-231 79.8 µM | 786-0 80 µM | MDA-N > 100 µM

COc1cc2c(cc1OC)C(=O)/C(=C/c1ccc(Cl)cc1)CC2
inactive: SNB-19 > 10 µM | NCI/ADR-RES > 10 µM | OVCAR-4 > 10 µM | SK-OV-3 > 10 µM | OVCAR-8 > 10 µM | NCI-H226 > 10 µM | IGROV-1 > 10 µM | SR > 10 µM | NCI-H460 > 10 µM | RPMI-8226 > 10 µM | MDA-MB-435 > 10 µM | SN12C > 10 µM | UACC-62 > 10 µM | Malme-3M > 10 µM | HL-60 > 10 µM | U-251 > 10 µM | MDA-MB-231 > 10 µM | 786-0 > 10 µM | MDA-N > 10 µM

CN1CCCOC(c2ccc(Cl)cc2)O1 (centres undefined)
inactive: SNB-19 > 100 µM | NCI/ADR-RES > 100 µM | OVCAR-4 > 100 µM | SK-OV-3 > 100 µM | NCI-H522 > 100 µM | OVCAR-8 > 100 µM | NCI-H226 > 100 µM | IGROV-1 > 100 µM | SR > 100 µM | NCI-H460 > 100 µM | MDA-MB-435 > 100 µM | SN12C > 100 µM | UACC-62 > 100 µM | Malme-3M > 100 µM | U-251 > 100 µM | MDA-MB-231 > 100 µM | 786-0 > 100 µM | MDA-N > 100 µM

COC(=O)C1=C(C(=O)OC)SC(=C2c3ccsc3-c3sccc32)S1
inactive: SNB-19 67.6 µM | NCI/ADR-RES 62.8 µM | OVCAR-4 > 10 µM | SK-OV-3 12.3 µM | OVCAR-8 29.1 µM | NCI-H226 27.4 µM | IGROV-1 40.6 µM | SR 34 µM | NCI-H460 > 100 µM | RPMI-8226 76.9 µM | MDA-MB-435 > 100 µM | SN12C 65.8 µM | UACC-62 26.6 µM | Malme-3M 43.2 µM | HL-60 24 µM | U-251 28.3 µM | MDA-MB-231 > 100 µM | 786-0 21.4 µM | MDA-N 70.3 µM

NC(Cc1ccccc1)(C(=O)O)C(=O)O
inactive: SNB-19 > 100 µM | NCI/ADR-RES > 100 µM | OVCAR-4 > 100 µM | SK-OV-3 > 100 µM | NCI-H522 > 100 µM | OVCAR-8 > 100 µM | NCI-H226 > 100 µM | IGROV-1 > 100 µM | NCI-H460 > 100 µM | RPMI-8226 > 100 µM | MDA-MB-435 > 100 µM | SN12C > 100 µM | UACC-62 > 100 µM | Malme-3M > 100 µM | U-251 > 100 µM | MDA-MB-231 > 100 µM | 786-0 > 100 µM | MDA-N > 100 µM

CN[C@@H](C)[C@@H](O)c1ccccc1 [PSEUDOEPHEDRINE HYDROCHLORIDE]
inactive: SNB-19 > 100 µM | NCI/ADR-RES > 100 µM | OVCAR-4 > 100 µM | NCI-H522 > 10 µM | OVCAR-8 > 100 µM | NCI-H226 > 100 µM | IGROV-1 > 100 µM | NCI-H460 > 100 µM | RPMI-8226 > 100 µM | MDA-MB-435 > 100 µM | SN12C > 100 µM | Malme-3M > 100 µM | HL-60 > 100 µM | U-251 > 100 µM | MDA-MB-231 > 10 µM | 786-0 > 100 µM | MDA-N > 100 µM
